ChEMBL document CHEMBL5291721, “A preclinical secondary pharmacology resource illuminates target-adverse drug reaction associations of marketed drugs” (Nat Commun, 2023)

How the values were obtained:
[1] = target: Muscarinic acetylcholine receptor M3 (Homo sapiens, UniProt P20309)
[2] = target: T1, Endothelin-1 receptor (Homo sapiens, UniProt P25101)
T1 sequence (P25101 whole entry): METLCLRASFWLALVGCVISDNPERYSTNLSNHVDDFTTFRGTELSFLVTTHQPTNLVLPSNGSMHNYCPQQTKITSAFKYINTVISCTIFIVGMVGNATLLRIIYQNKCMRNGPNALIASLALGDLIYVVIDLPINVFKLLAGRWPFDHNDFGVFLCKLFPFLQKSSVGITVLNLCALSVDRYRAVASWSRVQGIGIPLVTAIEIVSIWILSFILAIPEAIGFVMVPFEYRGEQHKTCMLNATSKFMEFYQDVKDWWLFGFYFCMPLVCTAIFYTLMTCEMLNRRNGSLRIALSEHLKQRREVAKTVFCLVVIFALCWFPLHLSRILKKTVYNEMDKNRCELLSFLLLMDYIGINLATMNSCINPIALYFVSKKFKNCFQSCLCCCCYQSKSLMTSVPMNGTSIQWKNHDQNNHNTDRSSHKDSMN

[3] = target: T2, Type-1 angiotensin II receptor (Homo sapiens, UniProt P30556)
T2 sequence (P30556 whole entry): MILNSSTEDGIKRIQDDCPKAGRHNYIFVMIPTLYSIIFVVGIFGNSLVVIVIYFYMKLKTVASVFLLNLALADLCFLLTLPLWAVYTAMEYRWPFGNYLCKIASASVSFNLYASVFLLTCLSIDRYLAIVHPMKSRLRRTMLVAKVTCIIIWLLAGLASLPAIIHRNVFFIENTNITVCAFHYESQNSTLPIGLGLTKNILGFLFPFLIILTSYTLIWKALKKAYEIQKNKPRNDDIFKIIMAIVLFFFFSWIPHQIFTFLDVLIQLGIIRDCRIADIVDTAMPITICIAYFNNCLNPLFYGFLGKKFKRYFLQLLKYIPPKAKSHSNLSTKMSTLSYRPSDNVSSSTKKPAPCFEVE

[4] = target: Kappa-type opioid receptor (Homo sapiens, UniProt P41145)
[5] = target: cGMP-inhibited 3',5'-cyclic phosphodiesterase 3A (Homo sapiens, UniProt Q14432); format: functional
[6] = target: T3, Alpha-2B adrenergic receptor (Homo sapiens, UniProt P18089)
T3 sequence (P18089 whole entry): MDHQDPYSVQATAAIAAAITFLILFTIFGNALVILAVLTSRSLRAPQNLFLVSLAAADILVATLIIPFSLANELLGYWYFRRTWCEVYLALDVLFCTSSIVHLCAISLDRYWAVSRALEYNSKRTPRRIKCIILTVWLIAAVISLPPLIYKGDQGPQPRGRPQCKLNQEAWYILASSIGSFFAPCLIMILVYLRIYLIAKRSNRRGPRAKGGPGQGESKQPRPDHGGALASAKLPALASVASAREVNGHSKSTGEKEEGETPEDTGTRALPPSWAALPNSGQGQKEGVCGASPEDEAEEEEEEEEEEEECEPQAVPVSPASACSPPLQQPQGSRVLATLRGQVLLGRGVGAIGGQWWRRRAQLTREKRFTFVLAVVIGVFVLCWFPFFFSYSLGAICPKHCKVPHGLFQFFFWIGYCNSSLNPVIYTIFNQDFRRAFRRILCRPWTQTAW

[7] = target: 5-hydroxytryptamine receptor 2A (Homo sapiens, UniProt P28223); format: functional, cell-based
[8] = target: T4, Alpha-2A adrenergic receptor (Homo sapiens, UniProt P08913); format: functional, cell-based
T4 sequence (P08913 whole entry): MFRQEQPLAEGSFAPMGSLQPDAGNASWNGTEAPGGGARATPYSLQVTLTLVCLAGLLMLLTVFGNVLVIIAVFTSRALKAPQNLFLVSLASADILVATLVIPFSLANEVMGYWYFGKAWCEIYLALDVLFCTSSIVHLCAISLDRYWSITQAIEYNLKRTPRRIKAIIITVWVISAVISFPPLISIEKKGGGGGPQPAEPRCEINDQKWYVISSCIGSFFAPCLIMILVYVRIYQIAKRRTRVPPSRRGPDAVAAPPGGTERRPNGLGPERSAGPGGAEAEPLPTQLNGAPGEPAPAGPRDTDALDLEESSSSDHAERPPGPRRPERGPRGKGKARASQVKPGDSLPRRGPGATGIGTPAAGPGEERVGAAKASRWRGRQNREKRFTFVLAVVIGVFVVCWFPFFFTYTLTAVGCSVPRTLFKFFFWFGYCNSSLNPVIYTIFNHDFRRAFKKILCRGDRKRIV

[9] = target: Neuronal acetylcholine receptor subunit alpha-4 (Homo sapiens, UniProt P43681)
[10] = target: T5, Glucocorticoid receptor (Homo sapiens, UniProt P04150)
T5 sequence (P04150 whole entry): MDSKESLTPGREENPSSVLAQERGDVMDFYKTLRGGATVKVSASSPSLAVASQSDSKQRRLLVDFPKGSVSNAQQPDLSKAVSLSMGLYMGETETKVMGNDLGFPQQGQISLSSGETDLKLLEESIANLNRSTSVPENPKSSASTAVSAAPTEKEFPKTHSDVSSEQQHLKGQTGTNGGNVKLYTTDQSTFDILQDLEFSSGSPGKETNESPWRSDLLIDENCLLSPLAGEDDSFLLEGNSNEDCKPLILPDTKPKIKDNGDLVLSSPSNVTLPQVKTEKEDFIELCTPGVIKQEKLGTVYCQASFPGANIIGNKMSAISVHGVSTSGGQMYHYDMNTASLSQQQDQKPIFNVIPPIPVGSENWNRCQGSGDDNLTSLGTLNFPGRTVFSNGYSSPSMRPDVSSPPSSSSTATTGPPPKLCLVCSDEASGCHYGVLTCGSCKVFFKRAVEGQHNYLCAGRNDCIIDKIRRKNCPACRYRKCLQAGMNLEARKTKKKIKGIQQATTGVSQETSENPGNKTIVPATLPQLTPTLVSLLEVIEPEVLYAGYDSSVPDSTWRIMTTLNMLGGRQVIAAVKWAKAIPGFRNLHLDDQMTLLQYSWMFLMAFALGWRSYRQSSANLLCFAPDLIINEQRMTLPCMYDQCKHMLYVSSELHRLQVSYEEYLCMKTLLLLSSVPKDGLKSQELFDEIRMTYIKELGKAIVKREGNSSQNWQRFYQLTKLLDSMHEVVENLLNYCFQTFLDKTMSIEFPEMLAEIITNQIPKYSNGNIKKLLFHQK

[11] = target: Melanocortin receptor 3 (Homo sapiens, UniProt P41968)
[12] = target: Voltage-dependent L-type calcium channel subunit alpha-1C (Rattus norvegicus, UniProt P22002); format: functional
[13] = target: Beta-2 adrenergic receptor (Homo sapiens, UniProt P07550)
Note: assay procedure not described here.

Melanocortin receptor 3, sequence (P41968 whole entry): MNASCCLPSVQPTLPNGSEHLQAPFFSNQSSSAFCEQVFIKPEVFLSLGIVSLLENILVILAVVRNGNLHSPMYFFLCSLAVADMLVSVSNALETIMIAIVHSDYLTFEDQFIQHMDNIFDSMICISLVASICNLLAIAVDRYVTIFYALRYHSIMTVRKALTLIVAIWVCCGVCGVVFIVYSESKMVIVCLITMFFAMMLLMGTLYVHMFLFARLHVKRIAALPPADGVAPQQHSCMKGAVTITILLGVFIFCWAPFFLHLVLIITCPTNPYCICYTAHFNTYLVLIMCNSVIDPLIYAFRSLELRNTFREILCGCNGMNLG
5-hydroxytryptamine receptor 2A, sequence (P28223 whole entry): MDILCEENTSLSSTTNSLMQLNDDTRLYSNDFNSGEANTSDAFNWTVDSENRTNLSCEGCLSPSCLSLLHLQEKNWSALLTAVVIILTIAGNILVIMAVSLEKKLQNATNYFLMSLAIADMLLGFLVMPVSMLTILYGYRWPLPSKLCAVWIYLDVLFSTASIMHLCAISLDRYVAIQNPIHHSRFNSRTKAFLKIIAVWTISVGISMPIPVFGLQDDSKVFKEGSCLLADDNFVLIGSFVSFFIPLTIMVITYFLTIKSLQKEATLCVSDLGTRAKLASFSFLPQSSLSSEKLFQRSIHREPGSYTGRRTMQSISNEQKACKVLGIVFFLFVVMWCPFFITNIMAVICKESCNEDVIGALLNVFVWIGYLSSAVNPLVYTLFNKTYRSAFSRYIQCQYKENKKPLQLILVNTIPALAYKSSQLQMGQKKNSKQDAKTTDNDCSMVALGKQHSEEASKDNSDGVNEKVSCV
Neuronal acetylcholine receptor subunit alpha-4, sequence (P43681 whole entry): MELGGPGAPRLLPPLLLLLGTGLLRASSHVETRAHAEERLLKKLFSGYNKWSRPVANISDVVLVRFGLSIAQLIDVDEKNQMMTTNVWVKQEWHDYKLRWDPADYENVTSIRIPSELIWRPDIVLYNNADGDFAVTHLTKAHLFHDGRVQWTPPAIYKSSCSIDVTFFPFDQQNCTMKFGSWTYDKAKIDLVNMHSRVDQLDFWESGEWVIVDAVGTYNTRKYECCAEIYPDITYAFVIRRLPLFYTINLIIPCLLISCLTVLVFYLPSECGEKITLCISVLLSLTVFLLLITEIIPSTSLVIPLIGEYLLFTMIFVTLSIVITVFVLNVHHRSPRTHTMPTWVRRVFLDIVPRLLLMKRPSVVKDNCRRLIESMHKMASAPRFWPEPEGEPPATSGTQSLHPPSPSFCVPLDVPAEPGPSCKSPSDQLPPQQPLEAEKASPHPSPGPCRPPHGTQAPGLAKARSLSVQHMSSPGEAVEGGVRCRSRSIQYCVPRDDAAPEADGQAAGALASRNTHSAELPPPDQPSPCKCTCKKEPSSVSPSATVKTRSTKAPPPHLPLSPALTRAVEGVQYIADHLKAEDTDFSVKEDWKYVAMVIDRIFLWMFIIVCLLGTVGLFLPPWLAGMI
Kappa-type opioid receptor, sequence (P41145 whole entry): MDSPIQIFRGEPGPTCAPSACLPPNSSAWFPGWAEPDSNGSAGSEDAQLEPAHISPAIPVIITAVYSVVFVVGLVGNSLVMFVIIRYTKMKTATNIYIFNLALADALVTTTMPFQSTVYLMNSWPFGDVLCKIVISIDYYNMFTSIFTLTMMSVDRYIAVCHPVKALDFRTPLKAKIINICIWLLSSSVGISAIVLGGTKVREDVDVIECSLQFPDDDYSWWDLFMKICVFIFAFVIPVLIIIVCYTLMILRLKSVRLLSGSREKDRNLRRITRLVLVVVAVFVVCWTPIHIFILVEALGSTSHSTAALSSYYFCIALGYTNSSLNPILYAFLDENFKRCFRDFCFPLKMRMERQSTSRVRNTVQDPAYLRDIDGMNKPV
Beta-2 adrenergic receptor, sequence (P07550 whole entry): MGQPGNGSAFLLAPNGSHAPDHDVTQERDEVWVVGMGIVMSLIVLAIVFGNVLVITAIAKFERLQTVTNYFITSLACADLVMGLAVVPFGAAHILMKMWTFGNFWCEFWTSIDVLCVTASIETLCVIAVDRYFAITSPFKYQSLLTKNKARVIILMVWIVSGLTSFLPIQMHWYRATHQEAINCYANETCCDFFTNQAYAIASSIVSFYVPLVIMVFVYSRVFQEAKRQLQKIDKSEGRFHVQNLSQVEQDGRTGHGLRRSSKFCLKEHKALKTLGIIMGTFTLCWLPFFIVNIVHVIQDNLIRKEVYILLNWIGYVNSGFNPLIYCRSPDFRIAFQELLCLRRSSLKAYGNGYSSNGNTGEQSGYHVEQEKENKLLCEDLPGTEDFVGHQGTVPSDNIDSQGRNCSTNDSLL
Voltage-dependent L-type calcium channel subunit alpha-1C, sequence (P22002 whole entry): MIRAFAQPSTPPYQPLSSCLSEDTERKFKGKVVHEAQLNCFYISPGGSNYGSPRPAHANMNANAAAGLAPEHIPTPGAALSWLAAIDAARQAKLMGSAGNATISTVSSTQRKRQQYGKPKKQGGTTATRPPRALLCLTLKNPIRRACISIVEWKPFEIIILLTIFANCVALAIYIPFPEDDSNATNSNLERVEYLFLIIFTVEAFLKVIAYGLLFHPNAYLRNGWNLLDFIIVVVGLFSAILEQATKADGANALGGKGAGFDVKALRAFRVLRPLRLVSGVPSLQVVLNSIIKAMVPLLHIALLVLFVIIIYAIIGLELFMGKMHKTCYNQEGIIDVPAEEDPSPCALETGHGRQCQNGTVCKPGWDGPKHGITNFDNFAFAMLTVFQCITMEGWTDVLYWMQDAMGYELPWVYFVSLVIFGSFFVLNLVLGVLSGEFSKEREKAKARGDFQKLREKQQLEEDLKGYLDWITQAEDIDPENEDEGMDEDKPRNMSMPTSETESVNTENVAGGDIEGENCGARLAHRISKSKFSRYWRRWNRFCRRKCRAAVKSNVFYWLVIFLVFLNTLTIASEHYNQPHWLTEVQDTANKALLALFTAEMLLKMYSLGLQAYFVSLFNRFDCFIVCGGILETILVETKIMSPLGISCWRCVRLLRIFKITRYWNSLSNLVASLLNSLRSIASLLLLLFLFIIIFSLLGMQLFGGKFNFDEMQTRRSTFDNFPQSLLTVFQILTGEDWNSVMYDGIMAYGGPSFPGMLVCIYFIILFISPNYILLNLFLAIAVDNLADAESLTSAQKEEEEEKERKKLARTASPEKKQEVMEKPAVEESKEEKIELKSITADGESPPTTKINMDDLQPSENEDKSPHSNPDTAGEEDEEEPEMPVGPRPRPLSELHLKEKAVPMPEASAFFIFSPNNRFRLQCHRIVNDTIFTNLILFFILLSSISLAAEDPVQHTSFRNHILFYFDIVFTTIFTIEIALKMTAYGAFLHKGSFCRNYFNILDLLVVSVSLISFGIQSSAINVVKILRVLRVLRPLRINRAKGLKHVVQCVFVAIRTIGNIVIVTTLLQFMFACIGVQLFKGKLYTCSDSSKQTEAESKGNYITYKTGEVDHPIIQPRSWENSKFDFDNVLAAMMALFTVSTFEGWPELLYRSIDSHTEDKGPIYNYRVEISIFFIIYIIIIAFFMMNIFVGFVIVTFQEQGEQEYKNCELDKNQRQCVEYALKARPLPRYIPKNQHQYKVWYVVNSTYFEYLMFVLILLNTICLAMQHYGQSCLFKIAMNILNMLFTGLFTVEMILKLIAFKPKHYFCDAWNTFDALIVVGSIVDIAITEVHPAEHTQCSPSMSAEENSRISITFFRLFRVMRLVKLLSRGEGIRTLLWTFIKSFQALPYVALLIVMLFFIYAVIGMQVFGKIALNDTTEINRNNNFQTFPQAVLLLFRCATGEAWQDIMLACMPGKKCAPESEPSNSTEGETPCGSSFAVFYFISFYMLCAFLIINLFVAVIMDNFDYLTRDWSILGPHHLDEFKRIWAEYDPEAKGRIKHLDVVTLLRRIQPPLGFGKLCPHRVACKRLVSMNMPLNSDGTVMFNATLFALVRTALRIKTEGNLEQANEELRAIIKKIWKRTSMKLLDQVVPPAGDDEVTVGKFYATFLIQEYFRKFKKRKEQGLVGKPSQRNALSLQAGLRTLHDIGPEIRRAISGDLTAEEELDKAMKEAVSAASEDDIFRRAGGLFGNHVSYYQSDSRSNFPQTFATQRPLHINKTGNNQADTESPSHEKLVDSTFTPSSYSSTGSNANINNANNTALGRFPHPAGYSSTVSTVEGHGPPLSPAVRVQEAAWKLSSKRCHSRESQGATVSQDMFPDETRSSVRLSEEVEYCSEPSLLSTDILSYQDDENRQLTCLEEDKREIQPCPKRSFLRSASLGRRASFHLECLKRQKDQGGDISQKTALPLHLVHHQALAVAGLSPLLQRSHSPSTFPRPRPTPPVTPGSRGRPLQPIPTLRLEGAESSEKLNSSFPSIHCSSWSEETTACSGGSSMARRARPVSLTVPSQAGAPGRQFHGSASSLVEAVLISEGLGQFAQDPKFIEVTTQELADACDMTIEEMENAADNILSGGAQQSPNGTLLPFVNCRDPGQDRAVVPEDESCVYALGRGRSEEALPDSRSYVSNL
Muscarinic acetylcholine receptor M3, sequence (P20309 whole entry): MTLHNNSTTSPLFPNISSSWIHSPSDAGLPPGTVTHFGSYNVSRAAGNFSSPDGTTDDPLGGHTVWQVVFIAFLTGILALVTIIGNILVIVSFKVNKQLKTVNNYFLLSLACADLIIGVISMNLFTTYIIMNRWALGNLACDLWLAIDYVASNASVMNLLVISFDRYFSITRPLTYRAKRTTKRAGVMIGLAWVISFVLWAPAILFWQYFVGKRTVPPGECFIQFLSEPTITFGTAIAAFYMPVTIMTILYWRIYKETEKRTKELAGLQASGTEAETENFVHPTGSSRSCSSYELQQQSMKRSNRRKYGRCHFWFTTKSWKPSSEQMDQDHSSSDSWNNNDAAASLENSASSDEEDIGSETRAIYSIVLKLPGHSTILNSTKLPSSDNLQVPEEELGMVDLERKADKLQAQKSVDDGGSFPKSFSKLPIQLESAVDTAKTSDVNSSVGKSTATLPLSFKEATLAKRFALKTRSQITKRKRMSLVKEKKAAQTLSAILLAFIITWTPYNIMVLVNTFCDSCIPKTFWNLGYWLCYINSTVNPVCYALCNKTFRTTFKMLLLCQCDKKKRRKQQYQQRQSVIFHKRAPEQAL

Structure (SMILES) | AC50 [1] [µM] | AC50 [2] [µM] | AC50 [3] [µM] | AC50 [4] [µM] | AC50 [5] [µM] | AC50 [6] [µM] | AC50 [7] [µM] | AC50 [8] [µM] | AC50 [9] [µM] | AC50 [10] [µM] | AC50 [11] [µM] | AC50 [12] [µM] | AC50 [13] [µM]
NCC(=O)CCC(=O)O [AMINOLEVULINIC ACID] | > 30 | > 30 | > 30 | > 30 | > 30 | > 30 | > 30 | > 30 | > 30 | > 30 | > 30 | – | –
CCc1c(Cl)c(O)c(Cl)c(O)c1C(=O)O[C@H]1[C@H](O)[C@H](OC)[C@H](OC/C2=C\C=C\C[C@H](O)/C(C)=C/[C@H](CC)[C@@H](O[C@@H]3OC(C)(C)[C@@H](OC(=O)C(C)C)[C@H](O)[C@@H]3O)/C(C)=C/C(C)=C/C[C@@H]([C@@H](C)O)OC2=O)O[C@@H]1C [FIDAXOMICIN] | – | > 30 | > 30 | > 10 | > 30 | > 10 | 18 | – | > 10 | > 30 | > 30 | > 10 | > 10
CO[C@@H]1[C@@H](O[C@@H]2O[C@H](C)[C@@H](O[C@H]3C[C@@](C)(O)[C@@H](OC(=O)CC(C)C)[C@H](C)O3)[C@H](N(C)C)[C@H]2O)[C@@H](CC=O)C[C@@H](C)[C@@H](O)/C=C/C=C/C[C@@H](C)OC(=O)C[C@H]1OC(C)=O [JOSAMYCIN] | > 30 | – | > 10 | > 10 | > 30 | > 10 | > 10 | > 10 | > 10 | > 10 | > 10 | > 10 | > 10
CC(C)OC(=O)CCC/C=C\C[C@@H]1[C@@H](CC[C@@H](O)CCc2ccccc2)[C@H](O)C[C@@H]1O [LATANOPROST] | > 30 | > 30 | > 30 | > 30 | > 30 | > 30 | > 30 | > 30 | > 30 | > 30 | > 30 | – | –
COC(=O)C1=C(C)NC(C)=C(C(=O)OC(C)(C)CN(C)CCC(c2ccccc2)c2ccccc2)C1c1cccc([N+](=O)[O-])c1 (stereo not given) [LERCANIDIPINE] | > 30 | – | > 30 | 3.8 | 25 | > 30 | > 30 | > 30 | > 30 | > 30 | > 30 | 0.046 | > 30
C[C@H](N)[C@H](O)c1cccc(O)c1 [METARAMINOL] | > 30 | – | > 10 | > 10 | > 30 | > 10 | > 10 | > 10 | > 10 | > 10 | > 10 | > 10 | > 30
CCC1(CC)C(=O)NCC(C)C1=O (stereo not given) [METHYPRYLON] | > 30 | > 30 | > 30 | > 30 | > 30 | > 30 | > 30 | > 30 | > 30 | > 30 | > 30 | – | –
O=C(O)[C@H](CC(=O)N1C[C@H]2CCCC[C@H]2C1)Cc1ccccc1 [MITIGLINIDE] | > 30 | – | > 10 | > 10 | > 30 | > 10 | > 10 | > 10 | > 10 | > 10 | > 10 | > 10 | > 10
Clc1ccc(CCCOCCCN2CCCCC2)cc1 [PITOLISANT] | > 30 | > 30 | > 30 | > 30 | > 30 | > 30 | > 30 | – | > 30 | > 30 | > 30 | – | –
CN1CCC(=C2c3ccccc3CCc3sccc32)CC1 [PIZOTYLINE] | > 10 | – | > 30 | 1.57 | > 30 | 0.51 | 0.0379 | > 30 | > 10 | > 30 | > 30 | 20.1 | 5.8
COC(=O)[C@H]1[C@H]2C[C@@H]3c4[nH]c5cc(OC)ccc5c4CCN3C[C@H]2C[C@@H](OC(=O)/C=C/c2cc(OC)c(OC)c(OC)c2)[C@@H]1OC [RESCINNAMINE] | > 30 | – | > 10 | > 30 | > 30 | > 10 | > 10 | > 10 | > 10 | > 10 | > 10 | 5.16 | > 10
C=CCC1(C(C)CC)C(=O)NC(=O)NC1=O (stereo not given) [TALBUTAL] | > 30 | – | > 10 | > 10 | > 30 | > 10 | > 10 | > 10 | > 10 | > 10 | > 10 | > 10 | > 10
C[C@H](CSC(=O)c1ccccc1)C(=O)N1C[C@@H](Sc2ccccc2)C[C@H]1C(=O)O [ZOFENOPRIL] | > 30 | – | > 10 | > 10 | > 30 | > 10 | > 10 | > 10 | > 10 | > 10 | > 10 | > 10 | > 10
